The numbers were not newly measured in patent publication US20060014801A1, “Prevention and treatment of cognitive impairment using (R)-(-)-5-methyl-1-nicotynoyl-2-pyrazoline (MNP) and analogs” (The Johns Hopkins University, priority 2002, published 2006), which cites them from elsewhere.

The test system of this data set is aged rats. As to conditions: cited from earlier work.

On to `CO/N=C(\C(=O)N[C@@H]1C(=O)N2C(C(=O)O)=C(CSc3nc(=O)c(=O)[nH]n3C)CS[C@H]12)c1csc(N)n1` [ceftriaxone], for which the Cognitive function result was “improvements of cognitive function”.
